Measurements published in patent US4386073A, “Tripeptides acting on the central nervous system and a process for the preparation thereof” (Patentbureau DANUBIA, priority 1979, dated 1983).
Where a SMILES comes first, the peptide text is derived from it. [ ]: non-standard residue; d: D form. d(pGlu) = O=C1CC[C@H](C(=O)O)N1

Tests used:
[1] = tested on: L-Dopa-induced locomotive activity; experiment: Potentiation of locomotive activity induced on mice by L-Dopa; format: in vivo; details: compound 20 mg/kg i.p., percent related to TRH; for Potentiation of the locomotive effect of L-Dopa, % after 30': Pargyline 40 mg/kg i.p., L-Dopa 100 mg/kg i.p., 30 min; for Potentiation of the locomotive effect of L-Dopa, % after 60': 60 min; for Potentiation of the locomotive effect of L-Dopa, % after 90': 90 min
Method: (2) Potentiation of locomotive activity induced on mice by L-Dopa (see The Thyroid Axis, Drugs and Behavior, p. 116, A. J. Prage Jr., Raven Press, New York, 1974)
The tests were performed on groups of 15 male mice each, weighing 18 to 22 g.
First, the animals were treated intraperitoneally with 40 mg/kg of N-methyl-N-propargyl-benzylamine (Pargyline), and then an intraperitoneal dosage of 20 mg/kg of TRH or a TRH-analogue was introduced, followed by an intraperitoneal dosage of 100 mg/kg of L-Dopa. The locomotive activity of the animals was recorded 30, 60 and 90 minutes after this treatment, and the level of potentiation was expressed in percents related to the results observed with TRH.

Reserpine hypothermy = experiment: Reserpine hypothermy-reversing effect on mice; format: in vivo; details: average of 10 animals; for Reserpine hypothermy reversing effect, rectal temperature obs. time 1 h: 1 hour after 20 mg/kg of the tripeptide; for Reserpine hypothermy reversing effect, rectal temperature obs. time 2 h: 2 hours after 20 mg/kg of the tripeptide; for Reserpine hypothermy reversing effect, rectal temperature res.: 16 hours after reserpine 5 mg/kg i.p., before the tripeptide; for Reserpine hypothermy reversing effect, rectal temperature norm.: baseline prior to administration of reserpine
Method: (3) Reserpine hypothermy-reversing effect on mice (see B. M. Askew: Life Sci. 2, 725-730/1963/)
The tests were performed on groups of 10 male mice each, weighing 18 to 22 g. Reserpine was administered into the animals in an intraperitoneal dosage of 5 mg/kg, and 16 hours later the animals were treated with 20 mg/kg of TRH or a tripeptide under examination.
The rectal temperature of the animals was measured prior to the administration of reserpine (marked by "norm." in Table 1), 16 hours after the administration of reserpine (marked by "res." in Table 1), furthermore 1 and 2 hours after the administration of the tripeptide (marked by "obs.time" in Table 1). The data listed in Table 1 are the averages of the temperatures observed on the 10 animals.

ethanol-induced sleeping = experiment: Ethanol narcosis; format: in vivo, CFLP (LATI) mice; details: mice, ethanol 4.5 g i.p., compound 20 mg/kg i.p. 10 min later; control sleeping 46.9 ± 2.17 min
Method: (5) Ethanol narcosis (see J. M. Cott et al.: J. Pharm. Exp. Ther. 196, 594/1976/) The tests were performed on groups of 20 CFLP (LATI) mice of both sexes, each weighing 18 to 22 g. 4.5 g of ethanol were introduced intraperitoneally into the animals, and 10 minutes later the animals were treated intraperitoneally with 20 mg/kg of the tripeptide under examination. The sleeping periods of the animals were recorded, averages were calculated for the individual groups, and the results were expressed as percents related to the control group.

[2] = tested on: hexobarbital-induced sleeping; experiment: Influencing the duration of sleeping caused by hexobarbital; format: in vivo; details: mice, hexobarbital sodium 60 mg/kg i.v., compound 20 mg/kg i.p. 10 min later; control sleeping 38.4 ± 1.36 min
Method: (4) Influencing the duration of sleeping caused by hexobarbital The tests were performed on groups of 10 male mice each. The animals were treated intravenously with 60 mg/kg of hexobarbital sodium ([…]®; Bayer), and 10 minutes later 20 mg/kg of TRH or a tripeptide under examination were administered intraperitoneally into the animals. The sleeping times of the animals were recorded, averages were calculated for the individual groups, and the results were expressed as percents related to the control group.

TSH = experiment: Hormonal activity (TSH effect) on rats; format: in vivo, rat (male Wistar); details: 20 mg/kg i.v., plasma TSH by radioimmune assay 15 min after treatment, relative activity, TRH = 100%
Method: (6) Hormonal activity (TSH effect) on rats
The tests were performed on groups of 7 or 8 male Wistar rats each, weighing 200 g. The animals were treated intravenously with 20 mg/kg of TRH or a tripeptide under examination. The TSH reaction of the animals was evaluated 15 minutes after this treatment, by subjecting the blood plasma to radioimmune assay. The relative activities were calculated by the four-point method using a TPA 101 computer, and the activity of TRH was regarded as 100%.

[3] = tested on: Haloperidol-induced catalepsy; experiment: Inhibition of Haloperidol-induced catalepsy on rats; format: in vivo, rat (male Wistar); details: Haloperidol 40 mg/kg s.c., test compound i.v. 120 min later, probit analysis, at the time given
Method: (1) Inhibition of Haloperidol-induced catalepsy on rats (see J. Delay and P. Deniker: Compt. Rend. Congr. Med. Alenistes Neurologistes, 19, 497, Luxembourg, 1952)
The tests were performed on male Wistar rats weighing 160 to 180 g.
40 mg/kg of 4-(p-chlorophenyl)-1-(3-/p-fluorobenzoyl/-propyl)-piperidin-4-ol (Haloperi dol) were administered subcutaneously into the animals, and 120 minutes after this treatment the animals were checked for the appearance of catalepsy. The rats were divided into groups of 10 animals each, and treated intravenously with TRH or the new TRH analogues. The animals belonging to the control group received physiological saline. The catalepsy-suspending effects of the individual compounds were determined 15, 30, 60, 90 and 120 minutes after the treatment. The animals that had not changed their position for 30 seconds after placing their fore-paw onto a 7 cm high column were regarded as cataleptic.

SMILES | Potentiation of the locomotive effect of L-Dopa, % after 30' [1] | Potentiation of the locomotive effect of L-Dopa, % after 60' [1] | Potentiation of the locomotive effect of L-Dopa, % after 90' [1] | Reserpine hypothermy reversing effect, rectal temperature obs. time 1 h (Reserpine hypothermy) | Reserpine hypothermy reversing effect, rectal temperature obs. time 2 h (Reserpine hypothermy) | Reserpine hypothermy reversing effect, rectal temperature res. (Reserpine hypothermy) | Reserpine hypothermy reversing effect, rectal temperature norm. (Reserpine hypothermy) | Decrease of sleeping period (% related to the control animals), Ethanol (ethanol-induced sleeping) | Decrease of sleeping period (% related to the control animals), Hexobarb. [2] | TSH effect (TSH) | Inhibition of Haloperidol catalepsy ED50 [3]
CCC[C@H](NC(=O)C1CCCC(=O)N1)C(=O)N1CCC[C@H]1C(N)=O (stereo partly drawn) [Kpc Nva Pro, L-6-Ketopiperidine-2-carbonyl-L-norvalyl-L-prolinamide] | 36% | 45% | 65% | 33.1 °C | 32.5 °C | 23.9 °C | 36.3 °C | 46% | 51% | 0% | 10.6 mg/kg
NC(=O)[C@@H]1CCCN1C(=O)[C@H](Cc1c[nH]cn1)NC(=O)[C@@H]1CCC(=O)N1 [TRH, L-pyroglutamyl-L-histidyl-L-prolinamide, reference compound] | – | 100% | 100% | 35.5 °C | – | – | – | 35% | 56% | – | 80 mg/kg
CC(C)C[C@H](NC(=O)C1CCCC(=O)N1)C(=O)N1CCC[C@H]1C(N)=O (stereo partly drawn) [Kpc Leu Pro, L-6-ketopiperidine-2-carbonyl-L-leucyl-L-prolinamide] | 319% | 80% | 127% | 32.0 °C | 33.9 °C | 24.5 °C | 36.3 °C | 79% | 37% | 2.7% | 23.5 mg/kg
CC(C)C[C@H](NC(=O)[C@H]1CCC(=O)N1)C(=O)N1CCC[C@H]1C(N)=O [D-Glp Leu Pro, D-Pyroglutamyl-L-leucyl-L-prolinamide] ([d(pGlu)]-Leu-Pro-NH2) | 54% | 58% | 115% | 25.8 °C | 25.6 °C | 27.4 °C | 36.5 °C | 54% | 97% | 0% | 70 mg/kg
CC(C)C[C@H](NC(=O)C1CNC(=O)N1)C(=O)N1CCC[C@H]1C(N)=O (stereo partly drawn) [Kic Leu Pro, L-2-Ketoimidazolidine-4-carbonyl-L-leucyl-L-prolinamide] | 118% | 70% | 98% | 27.7 °C | 28.8 °C | 24.1 °C | 35.5 °C | 69% | 59% | 0% | 80 mg/kg
CCC[C@H](NC(=O)C1CCCC(=O)N1)C(=O)N1CCCC[C@H]1C(N)=O (stereo partly drawn) [Kpc Nva HPro, L-6-Ketopiperidine-2-carbonyl-L-norvalyl-L-homoprolinamide] | 63% | 30% | 108% | 26.5 °C | 32.2 °C | 20.7 °C | 36.3 °C | 35% | 76% | – | 35.3 mg/kg
